Data taken from ChEMBL document CHEMBL3351582, “A simple, general approach of allosteric coagulation enzyme inhibition through monosulfated hydrophobic scaffolds” (Bioorg Med Chem Lett, 2014).
The source made the active and inactive calls. The calls are words filed in the database; no cut-off is given here.

Assays:
[1] = target: T1, Coagulation factor XII (Homo sapiens) (UniProt P00748); assay: Inhibition of human factor 12a assessed as residual activity at 500 uM by spectrophotometric assay
T1 sequence (whole entry): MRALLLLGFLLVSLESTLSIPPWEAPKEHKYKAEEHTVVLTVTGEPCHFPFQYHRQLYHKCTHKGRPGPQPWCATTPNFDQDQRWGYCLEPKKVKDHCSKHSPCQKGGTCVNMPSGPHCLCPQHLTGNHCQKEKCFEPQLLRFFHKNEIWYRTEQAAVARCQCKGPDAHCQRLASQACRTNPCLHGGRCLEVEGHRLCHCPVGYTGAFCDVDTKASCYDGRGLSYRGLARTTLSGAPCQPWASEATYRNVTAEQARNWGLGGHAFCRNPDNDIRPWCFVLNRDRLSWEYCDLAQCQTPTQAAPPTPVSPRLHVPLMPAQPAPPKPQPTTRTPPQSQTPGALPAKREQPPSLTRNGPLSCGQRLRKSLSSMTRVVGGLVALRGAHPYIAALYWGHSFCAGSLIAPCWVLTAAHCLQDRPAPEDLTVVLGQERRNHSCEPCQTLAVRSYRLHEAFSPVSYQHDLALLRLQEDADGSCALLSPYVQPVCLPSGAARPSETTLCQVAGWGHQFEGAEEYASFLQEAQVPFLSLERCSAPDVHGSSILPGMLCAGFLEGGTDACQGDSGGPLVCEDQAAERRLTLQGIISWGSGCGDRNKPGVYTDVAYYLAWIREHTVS

[2] = target: Prothrombin (Homo sapiens) (UniProt P00734); assay: Inhibition of human thrombin using spectrozyme TH as substrate assessed as residual activity at 500 uM by spectrophotometric assay
[3] = target: Coagulation factor X (Homo sapiens) (UniProt P00742); assay: Inhibition of human factor 10a assessed as residual activity at 500 uM by spectrophotometric assay
Chain of Coagulation factor X (Homo sapiens) (P00742 41-179 limits assumed): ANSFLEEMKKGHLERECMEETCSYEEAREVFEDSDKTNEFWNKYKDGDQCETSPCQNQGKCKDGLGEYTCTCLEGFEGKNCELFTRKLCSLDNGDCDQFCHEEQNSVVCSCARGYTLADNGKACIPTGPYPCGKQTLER
Chain of Coagulation factor X (Homo sapiens) (P00742 235-488 limits assumed): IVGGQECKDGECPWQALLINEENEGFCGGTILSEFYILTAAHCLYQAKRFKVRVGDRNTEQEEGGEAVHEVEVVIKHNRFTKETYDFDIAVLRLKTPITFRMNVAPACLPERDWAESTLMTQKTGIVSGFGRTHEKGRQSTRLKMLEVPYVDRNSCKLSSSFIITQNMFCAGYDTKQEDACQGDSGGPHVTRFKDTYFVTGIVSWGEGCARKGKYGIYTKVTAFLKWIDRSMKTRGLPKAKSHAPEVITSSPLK

[4] = target: T2, Coagulation factor VII (Homo sapiens) (UniProt P08709); assay: Inhibition of human factor 7a assessed as residual activity at 500 uM by spectrophotometric assay
T2 sequence (whole entry): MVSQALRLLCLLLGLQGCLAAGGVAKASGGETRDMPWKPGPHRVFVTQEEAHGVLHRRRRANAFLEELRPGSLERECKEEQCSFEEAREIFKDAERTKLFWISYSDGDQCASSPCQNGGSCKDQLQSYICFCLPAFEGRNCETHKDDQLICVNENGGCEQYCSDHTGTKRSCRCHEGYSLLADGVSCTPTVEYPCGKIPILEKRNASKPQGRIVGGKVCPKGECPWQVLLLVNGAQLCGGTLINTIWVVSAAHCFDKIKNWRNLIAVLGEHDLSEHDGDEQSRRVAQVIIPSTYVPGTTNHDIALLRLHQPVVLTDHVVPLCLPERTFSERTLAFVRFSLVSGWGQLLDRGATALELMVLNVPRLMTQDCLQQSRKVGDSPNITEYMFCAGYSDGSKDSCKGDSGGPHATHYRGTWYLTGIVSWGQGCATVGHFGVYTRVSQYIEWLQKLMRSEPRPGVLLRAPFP

[5] = target: Coagulation factor XI (Homo sapiens) (UniProt P03951); assay: Inhibition of human factor 11a assessed as residual activity at 500 uM by spectrophotometric assay
Chain of Coagulation factor XI (Homo sapiens) (P03951 19-387 limits assumed): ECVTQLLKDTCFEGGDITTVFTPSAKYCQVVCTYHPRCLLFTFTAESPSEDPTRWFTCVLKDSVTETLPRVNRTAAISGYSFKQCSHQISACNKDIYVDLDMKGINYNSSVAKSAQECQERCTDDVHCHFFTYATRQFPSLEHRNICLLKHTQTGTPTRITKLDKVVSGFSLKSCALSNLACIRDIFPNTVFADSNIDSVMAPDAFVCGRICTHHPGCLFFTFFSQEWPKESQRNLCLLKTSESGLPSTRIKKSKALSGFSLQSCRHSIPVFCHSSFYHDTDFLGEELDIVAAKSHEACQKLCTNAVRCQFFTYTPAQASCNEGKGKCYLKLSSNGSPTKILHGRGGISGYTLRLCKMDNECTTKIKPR
Chain of Coagulation factor XI (Homo sapiens) (P03951 388-625 limits assumed): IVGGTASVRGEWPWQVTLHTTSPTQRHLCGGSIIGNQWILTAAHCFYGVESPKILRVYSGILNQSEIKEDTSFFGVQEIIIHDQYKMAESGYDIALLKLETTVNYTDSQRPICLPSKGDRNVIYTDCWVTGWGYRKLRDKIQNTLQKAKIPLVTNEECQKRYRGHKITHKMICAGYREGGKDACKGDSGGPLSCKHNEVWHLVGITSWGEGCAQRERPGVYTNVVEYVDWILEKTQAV

[6] = target: Coagulation factor IX (Homo sapiens) (UniProt P00740); assay: Inhibition of human factor 9a assessed as residual activity at 500 uM by spectrophotometric assay
Chain of Coagulation factor IX (Homo sapiens) (P00740 47-191 limits assumed): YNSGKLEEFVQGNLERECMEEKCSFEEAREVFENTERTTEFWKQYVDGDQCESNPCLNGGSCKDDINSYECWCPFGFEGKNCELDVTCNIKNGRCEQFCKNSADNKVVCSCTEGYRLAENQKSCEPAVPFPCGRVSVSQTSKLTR
Chain of Coagulation factor IX (Homo sapiens) (P00740 227-461 limits assumed): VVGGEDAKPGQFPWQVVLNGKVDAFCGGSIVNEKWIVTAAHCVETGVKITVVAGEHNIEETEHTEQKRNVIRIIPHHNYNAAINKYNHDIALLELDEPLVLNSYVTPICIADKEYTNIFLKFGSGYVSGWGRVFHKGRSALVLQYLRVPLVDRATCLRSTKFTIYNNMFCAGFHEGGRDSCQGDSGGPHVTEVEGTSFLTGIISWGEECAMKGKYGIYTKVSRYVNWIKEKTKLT

[7] = target: Prothrombin (Homo sapiens) (UniProt P00734); assay: Non-competitive inhibition of human thrombin using spectrozyme TH as substrate assessed as effect on substrate Km at 400 uM by Michaelis-Menten kinetics
[8] = test system: COc1cc2occ(C(=O)OC(C)(C)C)c2cc1OCc1nc2ccc(OS(=O)(=O)O)cc2s1; conditions: Homo sapiens; 400 uM
Description: Non-competitive inhibition of human thrombin using spectrozyme TH as substrate assessed as reduction in substrate Vmax at 400 uM by Michaelis-Menten kinetics

Activity [1] [%] | Activity [2] [%] | Activity [3] [%] | Activity [4] [%] | Activity [5] [%] | Activity [6] [%] | inhibition [7] | Compound | Vmax [8] [mAU/min/µM]
100 | 30 | 22 | 98 | 0 | 101 | Active | COc1cc2occ(C(=O)OC(C)(C)C)c2cc1OCc1nc2ccc(OS(=O)(=O)O)cc2s1 | –
100 | 104 | 98 | 100 | 62 | 82 | – | CCOC(=O)c1c(C)oc2cc(OC)c(OCc3oc4cc(OC)c(OCc5nc6ccc(OS(=O)(=O)O)cc6s5)cc4c3C(=O)OCC)cc12 | –
92 | 42 | 0 | 99 | 0 | 98 | – | CCOC(=O)c1c(C)[nH]c2ccc(OCc3c(C(=O)OCC)c4cc(OS(=O)(=O)O)ccc4n3C(=O)OC(C)(C)C)cc12 | –
97 | 48 | 105 | 102 | 120 | 110 | – | Cc1nc2ccc(OCc3nc4ccc(OS(=O)(=O)O)cc4s3)cc2s1 | –
95 | 99 | 77 | 91 | 52 | 94 | – | Cc1nc2ccc(OS(=O)(=O)O)cc2s1 | –

More lines, now with the values behind:

Compound | Activity [1] [%] | Activity [2] [%] | Activity [3] [%] | Activity [4] [%] | Activity [5] [%] | Activity [6] [%] | inhibition [7] | Vmax [8] [mAU/min/µM]
CCOC(=O)c1c(COc2cc3c(C(=O)OCC)c(Cc4ccccc4)oc3cc2OC)[nH]c2ccc(OS(=O)(=O)O)cc12 | 100 | 29 | 37 | 109 | 0 | 98 | – | –
CCOC(=O)c1c(C)[nH]c2ccc(OS(=O)(=O)O)cc12 | 90 | 100 | 120 | 90 | 114 | 98 | – | –
CCOC(=O)c1c(COc2cc3c(C(=O)OCC)c(COc4cc5c(C(=O)OCC)c(C)oc5cc4OC)oc3cc2OC)[nH]c2ccc(OS(=O)(=O)O)cc12 | 97 | 46 | 33 | 92 | 16 | 109 | – | –
CCOC(=O)c1c(COc2cc3c(C(=O)OCC)coc3cc2OC)[nH]c2ccc(OS(=O)(=O)O)cc12 | 97 | 102 | 34 | 87 | 111 | 98 | – | –
Prothrombin (Homo sapiens) (from UniProt P00734) | – | – | – | – | – | – | – | 24.5
CCOC(=O)c1c(Cc2ccccc2)oc2cc(OC)c(OCc3nc4ccc(OS(=O)(=O)O)cc4s3)cc12 | 96 | 108 | 90 | 100 | 88 | 90 | – | –
